In article PMC8765437, “GSK3640254 Is a Novel HIV-1 Maturation Inhibitor with an Optimized Virology Profile” (Antimicrobial Agents and Chemotherapy, 2022):
pEC50: −log10 of the molar value. Like-named read-outs stand apart in the source and are kept apart here.

Tested on: NLRepRlucP373S viruses containing Gag SDMs or gag/pr genes from clinical isolates
Experiment: Multiple-cycle replication assay, NLRepRluc reporter viruses in MT-2 cells, luciferase endpoint
Format: cell-based, HIV-1
Description: Multiple-cycle assays using recombinant viruses or clinical isolates were used to assess MI antiviral activity as described previously ([10]). pNLRepRlucP373S (the P373S change is in the Gag gene and converts an outlier polymorphism in the NL4-3 gene to the prevalent amino acid in the population) plasmids containing SDMs in Gag or gag/pr regions from clinical isolates were transfected into HEK 293T cells, and the supernatant containing recombinant virus was harvested after 4 to 5 days. Virus was used to infect MT-2 cells in the presence of a 3-fold serially diluted compound at a final dimethyl sulfoxide (DMSO) concentration of 1%. The inocula of the reporter viruses were determined based on the luciferase activity detected on day 4 postinfection. The MOI (ratio of infectious virions to target cells) of reporter-free laboratory strains and clinical isolates was 0.005, as derived from a tissue culture infectious dose study. Clinical isolates or reporter-free viruses were examined in the reporter CEM-NKR-CCR5-Luc cells or PBMCs at MOIs ranging from 0.005 to 0.01. Each infection started with a drug-free preincubation of the cell-virus mixtures, performed at 37°C and 5% CO2 for either 1 h at 2 times the final cell density (reporter viruses) or 1 h (reporter-free laboratory strains) or 3 h (clinical isolates) using cell pellets in 0.5 mL of medium. After preincubation, cell-virus mixtures were added to compound-containing 96-well plates for a final cell density of either 10,000 (MT-2 cells for reporter viruses), 20,000 (MT-2 and PM1 cells for reporter-free laboratory strains), 200,000 (PBMCs for clinical isolates), or 500,000 (CEM-NKR-CCR5-Luc for reporter-free laboratory strains) cells per well. The CEM-NKR-CCR5-Luc cell assay was performed in the presence of Polybrene (10 μg/mL). Virus growth was determined on days 4 to 5 postinfection for reporter variants or days 5 to 11 for the other viruses. The reporter viruses were detected by a luciferase assay according to manufacturer protocols (Brite-Glo luciferase kit [Promega] for CEM-NKR-CCR5-Luc cells and Dual-Luciferase Reporter 1000 assay system [Promega] for the other cells), and luminescence was detected on a Wallac Trilux. The growth of clinical isolates in PBMCs was quantitated by reverse transcriptase activity in a 96-well scintillation proximity assay (SPA). Twenty microliters of culture supernatants was mixed with 40 μL of reaction cocktail (62.5 mM Tris-HCl [pH 7.8], 100 mM KCl, 0.0625% NP-40, 2.5 mM dithiothreitol [DTT], 6.25 mM MgCl2, 1 mM EGTA, 6.25 μg/mL of poly rA, 2.5 μg/mL of streptavidin SPA beads prebound with biotinylated-dT12-18, and 1 μCi of [^3H]TTP). Mixtures were incubated at 37°C for ∼3 h and quenched with 100 μl of 0.25 M EDTA per well. Luminescence was detected on a Wallac Trilux programmed for tritium counting with SPA beads in opaque plates. The growth of the reporter-free laboratory M-tropic strains and clinical isolates was monitored by a p24 enzyme-linked immunosorbent assay (ELISA; PerkinElmer Life Sciences, Waltham, MA) performed on culture supernatants. […] A 1:1,000 dilution of cell supernatant in PBS was generally observed to fall in the dynamic range of the endpoint signal.
Maximal percent inhibition values were calculated as MPI = 100 – (mean signals at the 2 highest concentrations of compound/mean signal of 2 no-drug control wells) × 100.

[1] = Human immunodeficiency virus 1, MT2, ΔV370, 10% FBS

`C=C(C)[C@@H]1CC[C@]2(NCCN3CCS(=O)(=O)CC3)CC[C@]3(C)[C@H](CC[C@@H]4[C@@]5(C)CC=C(C6=CC[C@@](CF)(C(=O)O)CC6)C(C)(C)[C@@H]5CC[C@]43C)[C@@H]12` [GSK’254] gave an EC90 (Human immunodeficiency virus 1, MT2, read-out: PBA EC90, subtype B gag/pr 93US155 (V370T)) of 14 nM, an EC90 (Human immunodeficiency virus 1, MT2, read-out: PBA EC90, subtype B gag/pr 411-1-C (Wild-type)) of 7 nM and an EC90 (Human immunodeficiency virus 1, MT2, read-out: PBA EC90, subtype B gag/pr 220162 (Wild-type)) of 40 nM. The EC90 (Human immunodeficiency virus 1, MT2, read-out: PBA EC90, subtype B gag/pr 400024 (V370M)) was 10 nM, the EC90 (Human immunodeficiency virus 1, MT2, read-out: PBA EC90, subtype B gag/pr 400051 (V370A)) was 21 nM and the EC90 (Human immunodeficiency virus 1, MT2, read-out: PBA EC90, subtype B gag/pr 1000038 (V362I/V370A)) was 43 nM. The EC90 (Human immunodeficiency virus 1, MT2, read-out: PBA EC90, subtype B gag/pr 1000156 (V362I)) was 63 nM, the EC90 (Human immunodeficiency virus 1, MT2, read-out: PBA EC90, subtype B gag/pr 1900120 (V370M)) was 11 nM and the EC90 (Human immunodeficiency virus 1, MT2, read-out: PBA EC90, subtype B gag/pr 1900140 (V362I)) was 47 nM. It also gave an EC90 (Human immunodeficiency virus 1, MT2, read-out: PBA EC90, subtype C gag/pr 93MW690) of 17 nM, an EC90 (Human immunodeficiency virus 1, MT2, read-out: PBA EC90, subtype C gag/pr 97ZA003) of 24 nM and an EC90 (Human immunodeficiency virus 1, MT2, read-out: PBA EC90, subtype C gag/pr 98CN009) of 27 nM. The EC90 (Human immunodeficiency virus 1, MT2, read-out: PBA EC90, subtype C gag/pr 98IN026) was 16 nM, the EC90 (Human immunodeficiency virus 1, MT2, read-out: PBA EC90, subtype C gag/pr 11657-3) was 37 nM and the EC90 (Human immunodeficiency virus 1, MT2, read-out: PBA EC90, subtype C gag/pr 20635-4) was 40 nM. For the same molecule, the EC90 (Human immunodeficiency virus 1, MT2, read-out: PBA EC90, subtype C gag/pr 1700141) was 19 nM, the EC90 (Human immunodeficiency virus 1, MT2, read-out: PBA EC90, subtype C gag/pr 1900543) was 24 nM and the EC90 (Human immunodeficiency virus 1, MT2, read-out: mean PBA EC90, 44-member library of genotyped chimeric and SDM viruses, protein-binding adjusted) was 33 nM. It also gave a pEC50 (Human immunodeficiency virus 1, MT2, subtype B gag/pr 4NRR (Wild-type)) of 9.00, a pEC50 (Human immunodeficiency virus 1, MT2, subtype B gag/pr 28-MDR (Wild-type)) of 9.00 and a pEC50 (Human immunodeficiency virus 1, MT2, subtype B gag/pr 92BR014 (V370M)) of 9.00. It also gave a pEC50 (Human immunodeficiency virus 1, MT2, subtype B gag/pr 92BR018 (V, QAΔ)) of 9.00, a pEC50 (Human immunodeficiency virus 1, MT2, subtype B gag/pr 92TH014 (V362I)) of 9.00 and a pEC50 (Human immunodeficiency virus 1, MT2, subtype B gag/pr 92TH026 (V362I)) of 8.40. For the same molecule, the pEC50 (Human immunodeficiency virus 1, MT2, subtype B gag/pr 92US072 (V362I)) was 9.00, the pEC50 (Human immunodeficiency virus 1, MT2, subtype B gag/pr 92US729 (Wild-type)) was 9.00 and the pEC50 (Human immunodeficiency virus 1, MT2, subtype B gag/pr 93BR008 (V362I)) was 8.70. It also gave a pEC50 (Human immunodeficiency virus 1, MT2, subtype B gag/pr 93BR009 (V370M)) of 8.70, a pEC50 (Human immunodeficiency virus 1, MT2, subtype B gag/pr 93BR017 (V, QAΔ)) of 8.70 and a pEC50 (Human immunodeficiency virus 1, MT2, subtype B gag/pr 93BR022 (V, QAΔ)) of 8.52. For the same molecule, the pEC50 (Human immunodeficiency virus 1, MT2, subtype B gag/pr 93TH0647 (V362I)) was 8.70, the pEC50 (Human immunodeficiency virus 1, MT2, subtype B gag/pr 93US141 (V362I)) was 8.70 and the pEC50 (Human immunodeficiency virus 1, MT2, subtype B gag/pr 93US155 (V370T)) was 9.00. It also gave a pEC50 (Human immunodeficiency virus 1, MT2, subtype B gag/pr 411-1-C (Wild-type)) of 9.30, a pEC50 (Human immunodeficiency virus 1, MT2, subtype B gag/pr 220162 (Wild-type)) of 8.70 and a pEC50 (Human immunodeficiency virus 1, MT2, subtype B gag/pr 400024 (V370M)) of 9.00. For the same molecule, the pEC50 (Human immunodeficiency virus 1, MT2, subtype B gag/pr 400051 (V370A)) was 9.00, the pEC50 (Human immunodeficiency virus 1, MT2, subtype B gag/pr 1000038 (V362I/V370A)) was 8.52 and the pEC50 (Human immunodeficiency virus 1, MT2, subtype B gag/pr 1000156 (V362I)) was 8.40. The pEC50 (Human immunodeficiency virus 1, MT2, subtype B gag/pr 1900120 (V370M)) was 9.00, the pEC50 (Human immunodeficiency virus 1, MT2, subtype B gag/pr 1900140 (V362I)) was 9.00 and the pEC50 (Human immunodeficiency virus 1, MT2, subtype C gag/pr 93MW690) was 9.00. It also gave a pEC50 (Human immunodeficiency virus 1, MT2, subtype C gag/pr 97ZA003) of 9.00, a pEC50 (Human immunodeficiency virus 1, MT2, subtype C gag/pr 98CN009) of 9.00 and a pEC50 (Human immunodeficiency virus 1, MT2, subtype C gag/pr 98IN026) of 9.00. The pEC50 (Human immunodeficiency virus 1, MT2, subtype C gag/pr 10215-6) was 9.00, the pEC50 (Human immunodeficiency virus 1, MT2, subtype C gag/pr 11657-3) was 8.70 and the pEC50 (Human immunodeficiency virus 1, MT2, subtype C gag/pr 20635-4) was 9.00. It also gave a pEC50 (Human immunodeficiency virus 1, MT2, subtype C gag/pr 20706-3) of 9.00, a pEC50 (Human immunodeficiency virus 1, MT2, subtype C gag/pr 1300495) of 9.00 and a pEC50 (Human immunodeficiency virus 1, MT2, subtype C gag/pr 1700141) of 8.70. The pEC50 (Human immunodeficiency virus 1, MT2, subtype C gag/pr 1900543) was 9.00, the pEC50 [1] was 8.36 and the EC90 [1] was 7.8 nM. It also gave an MPI (SDM A326T/V362I/V370A) of 69%, an MPI (SDM A364V) of 70% and an MPI (SDM R361K/V362I/L363M) of 91%. The MPI (SDM T332S/V362I/prR41G) was 97%, the MPI (SDM V362I/V370A) was 91% and the MPI (SDM V370A) was 97%. It also gave an MPI (SDM Wild type) of 98% and an MPI (SDM ΔV370) of 96%.
